{"source": "patent US5681723A", "about": "“Mutant interleukin 6 with improved biological activity over wild interleukin 6” (Instituto di Ricerche di Biologia Molecolare P. Angelett …, priority 1992, dated 1997)", "key": {"[1]": {"tested_on": "human hepatoma cell line Hep3B", "experiment": "CRP-CAT transcription induction assay in transfected human hepatoma Hep3B cells", "type": "cell-based", "settings": "ratio of amounts of wild type hIL-6 and mutant giving half maximal stimulation of CRP-CAT in Hep3B cells; wild type = 100%", "method": "The biological activity of the mutant of interest was determined first of all on cells of human origin. The activity of hIL-6 on human cells was assayed for its ability to enhance transcription from acute phase gene promoters in cells of hepatic origin (Morrone, G., Ciliberto, G., Oliviero, S., Arcone, R., Dente, L., Content, J. and Cortese, R. (1988) J. Biol. Chem. 263, 12554-12558). […]\nIn particular, human Hep3B cells were transfected with 45-50/ ug of the plasmid -219 CRP-CAT containing the IL-6 responsive element of the CRP promoter gene. […] After 16-18 hours, precipitates were removed, cells were trypsinized, pooled, counted and plated in equal number (10^5 to 3×10^5) in 5 cm diameter petri dishes; 7-9 hours after plating, cells were induced for 36-40 hours with increasing amounts of mutant or wild-type hIL-6. […]\nThe assay was carried out in duplicate (in triplicate in case of wild type hIL-6) with serial dilutions of two to four independent preparations of mutant. The activity of the mutant, expressed as a percent of wild type hIL-6, was calculated as the ratio between the amount of wild type hIL-6 and the amount of the mutant under examination necessary to give half maximal stimulation."}, "[2]": {"tested_on": "soluble hIL6 receptor", "experiment": "hIL-6R binding (affinity for the soluble hIL6 receptor)", "design": "species or system human", "settings": "mutant hIL6 produced in E. coli", "description": "Affinity for the soluble hIL6 receptor of mutant hIL6 produced in E. coli"}, "[3]": {"tested_on": "murine hybridoma cell line 7TD1", "experiment": "HGF (Hybridoma Growth Factor) assay, growth of hIL-6 dependent hybridoma 7TD1", "type": "cell-based", "settings": "murine hybridoma 7TD1, HGF assay", "method": "Mutant interleukin 6 according to the present invention has also been tested using the classical HGF (Hybridoma Growth Factor) assay for its ability to stimulate growth of the hIL-6 dependent murine hybridoma cell line 7TD1 (Van Snick, J., Cayphas, S., Vink, A., Uyttenhove, C., Coulie, P. G. and Simpson, R. J. (1986) Proc. Natl. Acad. Sci. USA, 83, 9679-9683). The assay was performed taking into account the indications of Fiorillo, M. T., Cabibbo, A., Iacopetti, P., Fattori, E. and Ciliberto, G. (1992) Eur. J. Immunol. 22, 2609-2615."}}}
{"substance": "S176R: mutant human interleukin 6 with arginine in position 176 in place of serine of wild interleukin 6 [Mutation S176R]", "values": [{"measurement": "Biological activity (% of wt hIL-6)", "setting": "[1]", "value": "370±90 % of wt hIL-6"}, {"measurement": "hIL-6R binding (% of wt hIL-6)", "setting": "[2]", "value": "320 ± 87 % of wt hIL-6"}, {"measurement": "ability to stimulate growth of hIL-6 dependent 7TD1 cells, with respect to the wild type", "setting": "[3]", "value": "significant increase in biological activity"}]}
